In PubChem BioAssay (NCI):
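Step 1: Grow cells in 96-well plates. Step 2: Expose to compound for 48 hours at 5 concentrations. Step 3: Interpolate endpoints linearly; if unreached, use highest concentration. GI50 = concentration required for 50% inhibition of growth. TGI marks complete inhibition of growth.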

How the values were obtained:
Assay in all cases: NCI-60 cell line screen, 48 h
SK-MEL-28 melanoma = test system: SK-MEL-28 melanoma
M14 melanoma = test system: M14 melanoma
RPMI-8226 leukemia = test system: RPMI-8226 leukemia
MCF7 breast = test system: MCF7 breast
HCT-116 colon = test system: HCT-116 colon
RXF 393 renal = test system: RXF 393 renal
OVCAR-5 ovarian = test system: OVCAR-5 ovarian
MOLT-4 leukemia = test system: MOLT-4 leukemia
MALME-3M melanoma = test system: MALME-3M melanoma
786-0 renal = test system: 786-0 renal
HCC-2998 colon = test system: HCC-2998 colon
NCI/ADR-RES ovarian = test system: NCI/ADR-RES ovarian
PC-3 prostate = test system: PC-3 prostate
SNB-75 CNS = test system: SNB-75 CNS
HOP-62 NSCLC = test system: HOP-62 NSCLC
SK-OV-3 ovarian = test system: SK-OV-3 ovarian
UACC-257 melanoma = test system: UACC-257 melanoma
SF-268 CNS = test system: SF-268 CNS
NCI-H226 lung = test system: NCI-H226 lung
DU-145 prostate = test system: DU-145 prostate
HT29 colon = test system: HT29 colon
SN12C renal = test system: SN12C renal
HL-60(TB) leukemia = test system: HL-60(TB) leukemia
A549 NSCLC = test system: A549 NSCLC
HOP-92 NSCLC = test system: HOP-92 NSCLC
NCI-H460 lung = test system: NCI-H460 lung
MDA-MB-435 = test system: MDA-MB-435
OVCAR-8 ovarian = test system: OVCAR-8 ovarian
SK-MEL-2 melanoma = test system: SK-MEL-2 melanoma
LOX IMVI melanoma = test system: LOX IMVI melanoma
SF-295 CNS = test system: SF-295 CNS
U251 CNS = test system: U251 CNS
MDA-MB-231 breast = test system: MDA-MB-231 breast
UACC-62 melanoma = test system: UACC-62 melanoma
SNB-19 CNS = test system: SNB-19 CNS
SK-MEL-5 melanoma = test system: SK-MEL-5 melanoma
BT-549 breast = test system: BT-549 breast
T-47D breast = test system: T-47D breast
COLO 205 colon = test system: COLO 205 colon
KM12 colon = test system: KM12 colon
HCT-15 colon = test system: HCT-15 colon
ACHN renal = test system: ACHN renal
A498 renal = test system: A498 renal
SW-620 colon = test system: SW-620 colon
K-562 leukemia = test system: K-562 leukemia
OVCAR-3 ovarian = test system: OVCAR-3 ovarian
IGROV1 ovarian = test system: IGROV1 ovarian
UO-31 renal = test system: UO-31 renal
OVCAR-4 ovarian = test system: OVCAR-4 ovarian
CAKI-1 renal = test system: CAKI-1 renal
CCRF-CEM leukemia = test system: CCRF-CEM leukemia
HS 578T breast = test system: HS 578T breast
SF-539 CNS = test system: SF-539 CNS
NCI-H23 lung = test system: NCI-H23 lung
SR leukemia = test system: SR leukemia
NCI-H522 lung = test system: NCI-H522 lung

Question: How did the GI50 (SK-MEL-28 melanoma) turn out when `O=C1/C(=C/c2ccc(Cl)cc2Cl)CN(S(=O)(=O)c2ccccc2)C/C1=C\c1ccc(Cl)cc1Cl` was run?
Answer: 8.29 µM

Question: And the TGI (SK-MEL-28 melanoma)?
Answer: > 100 µM

Question: And the GI50 (M14 melanoma)?
Answer: 2.77 µM

Question: What about the TGI (M14 melanoma) of the same compound?
Answer: > 100 µM

Question: What about the GI50 (RPMI-8226 leukemia) of the same compound?
Answer: 0.196 µM

Question: What about the TGI (RPMI-8226 leukemia) of the same compound?
Answer: 0.562 µM

Question: And the GI50 (MCF7 breast)?
Answer: 0.292 µM

Question: What about the TGI (MCF7 breast) of the same compound?
Answer: > 100 µM

Question: What about the GI50 (HCT-116 colon) of the same compound?
Answer: 0.198 µM

Question: And the TGI (HCT-116 colon)?
Answer: 0.421 µM

Question: What about the GI50 (RXF 393 renal) of the same compound?
Answer: 1.05 µM

Question: What about the TGI (RXF 393 renal) of the same compound?
Answer: 2.68 µM

Question: And the GI50 (OVCAR-5 ovarian)?
Answer: 1.02 µM

Question: And the TGI (OVCAR-5 ovarian)?
Answer: 4.65 µM

Question: And the GI50 (MOLT-4 leukemia)?
Answer: 0.46 µM

Question: And the TGI (MOLT-4 leukemia)?
Answer: 12 µM

Question: What about the GI50 (MALME-3M melanoma) of the same compound?
Answer: 7.2 µM

Question: And the TGI (MALME-3M melanoma)?
Answer: > 100 µM

Question: What about the GI50 (786-0 renal) of the same compound?
Answer: 0.23 µM

Question: And the TGI (786-0 renal)?
Answer: 0.509 µM

Question: And the GI50 (HCC-2998 colon)?
Answer: 0.379 µM

Question: What about the TGI (HCC-2998 colon) of the same compound?
Answer: 1.31 µM

Question: What about the GI50 (NCI/ADR-RES ovarian) of the same compound?
Answer: 1.15 µM

Question: And the TGI (NCI/ADR-RES ovarian)?
Answer: > 100 µM

Question: What about the GI50 (PC-3 prostate) of the same compound?
Answer: 0.299 µM

Question: What about the TGI (PC-3 prostate) of the same compound?
Answer: 0.979 µM

Question: What about the GI50 (SNB-75 CNS) of the same compound?
Answer: 0.473 µM

Question: And the TGI (SNB-75 CNS)?
Answer: 8.2 µM

Question: And the GI50 (HOP-62 NSCLC)?
Answer: 0.343 µM

Question: And the GI50 (SK-OV-3 ovarian)?
Answer: 7.32 µM

Question: What about the TGI (SK-OV-3 ovarian) of the same compound?
Answer: 98.9 µM

Question: And the GI50 (UACC-257 melanoma)?
Answer: 17.7 µM

Question: And the TGI (UACC-257 melanoma)?
Answer: > 100 µM

Question: And the GI50 (SF-268 CNS)?
Answer: 0.385 µM

Question: What about the TGI (SF-268 CNS) of the same compound?
Answer: > 35.7 µM

Question: What about the GI50 (NCI-H226 lung) of the same compound?
Answer: 0.513 µM

Question: What about the TGI (NCI-H226 lung) of the same compound?
Answer: 1.35 µM

Question: What about the GI50 (DU-145 prostate) of the same compound?
Answer: 0.466 µM

Question: And the TGI (DU-145 prostate)?
Answer: 19.7 µM

Question: And the GI50 (HT29 colon)?
Answer: 0.301 µM

Question: What about the TGI (HT29 colon) of the same compound?
Answer: 0.907 µM

Question: And the GI50 (SN12C renal)?
Answer: 0.288 µM

Question: And the TGI (SN12C renal)?
Answer: 1.1 µM

Question: And the GI50 (HL-60(TB) leukemia)?
Answer: 0.731 µM

Question: And the TGI (HL-60(TB) leukemia)?
Answer: > 19.9 µM

Question: And the GI50 (A549 NSCLC)?
Answer: 0.316 µM

Question: What about the TGI (A549 NSCLC) of the same compound?
Answer: 1.51 µM

Question: And the GI50 (HOP-92 NSCLC)?
Answer: 1.7 µM

Question: And the TGI (HOP-92 NSCLC)?
Answer: 5.55 µM

Question: What about the GI50 (NCI-H460 lung) of the same compound?
Answer: 0.224 µM

Question: And the TGI (NCI-H460 lung)?
Answer: 0.498 µM

Question: And the GI50 (MDA-MB-435)?
Answer: 0.701 µM

Question: And the TGI (MDA-MB-435)?
Answer: 2.89 µM

Question: What about the GI50 (OVCAR-8 ovarian) of the same compound?
Answer: 0.313 µM

Question: And the GI50 (SK-MEL-2 melanoma)?
Answer: 15.4 µM

Question: What about the TGI (SK-MEL-2 melanoma) of the same compound?
Answer: > 100 µM

Question: What about the GI50 (LOX IMVI melanoma) of the same compound?
Answer: 0.193 µM

Question: What about the TGI (LOX IMVI melanoma) of the same compound?
Answer: 0.395 µM

Question: And the GI50 (SF-295 CNS)?
Answer: 0.279 µM

Question: What about the TGI (SF-295 CNS) of the same compound?
Answer: 1.99 µM

Question: What about the GI50 (U251 CNS) of the same compound?
Answer: 0.173 µM

Question: And the TGI (U251 CNS)?
Answer: 0.351 µM

Question: What about the GI50 (MDA-MB-231 breast) of the same compound?
Answer: 0.469 µM

Question: And the TGI (MDA-MB-231 breast)?
Answer: 2.67 µM

Question: And the GI50 (UACC-62 melanoma)?
Answer: 1.18 µM

Question: What about the TGI (UACC-62 melanoma) of the same compound?
Answer: 4.41 µM

Question: What about the GI50 (SNB-19 CNS) of the same compound?
Answer: 0.496 µM

Question: What about the TGI (SNB-19 CNS) of the same compound?
Answer: 10.8 µM

Question: What about the GI50 (SK-MEL-5 melanoma) of the same compound?
Answer: 14.5 µM

Question: And the TGI (SK-MEL-5 melanoma)?
Answer: > 100 µM

Question: What about the GI50 (BT-549 breast) of the same compound?
Answer: 0.617 µM

Question: And the TGI (BT-549 breast)?
Answer: 2.64 µM

Question: And the GI50 (T-47D breast)?
Answer: 0.594 µM

Question: And the GI50 (COLO 205 colon)?
Answer: 0.339 µM

Question: And the TGI (COLO 205 colon)?
Answer: 1.21 µM

Question: And the GI50 (KM12 colon)?
Answer: 0.276 µM

Question: What about the TGI (KM12 colon) of the same compound?
Answer: 0.728 µM

Question: What about the GI50 (HCT-15 colon) of the same compound?
Answer: 0.226 µM

Question: What about the TGI (HCT-15 colon) of the same compound?
Answer: 0.614 µM

Question: And the GI50 (ACHN renal)?
Answer: 0.717 µM

Question: What about the TGI (ACHN renal) of the same compound?
Answer: 6.88 µM

Question: And the GI50 (A498 renal)?
Answer: 1.5 µM

Question: What about the TGI (A498 renal) of the same compound?
Answer: 8.76 µM

Question: What about the GI50 (SW-620 colon) of the same compound?
Answer: 0.314 µM

Question: What about the TGI (SW-620 colon) of the same compound?
Answer: 2.54 µM

Question: And the GI50 (K-562 leukemia)?
Answer: 0.326 µM

Question: What about the TGI (K-562 leukemia) of the same compound?
Answer: > 38.3 µM

Question: And the GI50 (OVCAR-3 ovarian)?
Answer: 0.259 µM

Question: What about the TGI (OVCAR-3 ovarian) of the same compound?
Answer: 0.62 µM

Question: What about the GI50 (IGROV1 ovarian) of the same compound?
Answer: 0.344 µM

Question: And the TGI (IGROV1 ovarian)?
Answer: 1.29 µM

Question: And the GI50 (UO-31 renal)?
Answer: 0.233 µM

Question: What about the TGI (UO-31 renal) of the same compound?
Answer: 0.675 µM

Question: What about the GI50 (OVCAR-4 ovarian) of the same compound?
Answer: 0.291 µM

Question: What about the TGI (OVCAR-4 ovarian) of the same compound?
Answer: > 96 µM

Question: And the GI50 (CAKI-1 renal)?
Answer: 0.817 µM

Question: What about the TGI (CAKI-1 renal) of the same compound?
Answer: 4.22 µM

Question: What about the GI50 (CCRF-CEM leukemia) of the same compound?
Answer: 0.291 µM

Question: And the TGI (CCRF-CEM leukemia)?
Answer: 1.3 µM

Question: What about the GI50 (HS 578T breast) of the same compound?
Answer: 0.322 µM

Question: And the TGI (HS 578T breast)?
Answer: 3.87 µM

Question: What about the GI50 (SF-539 CNS) of the same compound?
Answer: 0.315 µM

Question: And the TGI (SF-539 CNS)?
Answer: 1.13 µM

Question: And the GI50 (NCI-H23 lung)?
Answer: 0.381 µM

Question: And the TGI (NCI-H23 lung)?
Answer: 2.4 µM

Question: What about the GI50 (SR leukemia) of the same compound?
Answer: 0.198 µM

Question: What about the TGI (SR leukemia) of the same compound?
Answer: 0.925 µM

Question: What about the GI50 (NCI-H522 lung) of the same compound?
Answer: 1.13 µM

Question: And the TGI (NCI-H522 lung)?
Answer: 3.93 µM
